Assay type in all cases: biochemical
The target of one test is T1, human Yes1 enzyme (Homo sapiens, UniProt P07947).
T1 construct: made in house
Put plainly: Yes1 enzyme inhibitory activity (time-resolved fluorometry, biotinylated peptide phosphorylation). The settings on record: read-out: YES_IC50. Put shortly: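 Inhibition was expressed against a compound-free control to give IC50, using TR-FRET read-out (Eu-cryptate anti-pTyr antibody, streptavidin-XL665).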

A further test concerns the target T2, human Src enzyme (Homo sapiens, UniProt P12931).
T2 construct: purchased Carna Biosciences, Inc. 08-173
Put plainly: Src enzyme inhibitory activity (time-resolved fluorometry, biotinylated peptide phosphorylation). As to conditions: read-out: SRC_IC50. The method in brief: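 Compounds were tested for blocking tyrosine phosphorylation of a biotinylated peptide substrate by recombinant human Src. Phosphorylated product was quantified by time-resolved fluorometry using europium cryptate and XL665 conjugates, and IC50 was calculated against the compound-free control.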

The target of a further test is T3, human Lck enzyme (Homo sapiens, UniProt P06239).
T3 construct: purchased Carna Biosciences, Inc. 08-170
T3 sequence (P06239 whole entry): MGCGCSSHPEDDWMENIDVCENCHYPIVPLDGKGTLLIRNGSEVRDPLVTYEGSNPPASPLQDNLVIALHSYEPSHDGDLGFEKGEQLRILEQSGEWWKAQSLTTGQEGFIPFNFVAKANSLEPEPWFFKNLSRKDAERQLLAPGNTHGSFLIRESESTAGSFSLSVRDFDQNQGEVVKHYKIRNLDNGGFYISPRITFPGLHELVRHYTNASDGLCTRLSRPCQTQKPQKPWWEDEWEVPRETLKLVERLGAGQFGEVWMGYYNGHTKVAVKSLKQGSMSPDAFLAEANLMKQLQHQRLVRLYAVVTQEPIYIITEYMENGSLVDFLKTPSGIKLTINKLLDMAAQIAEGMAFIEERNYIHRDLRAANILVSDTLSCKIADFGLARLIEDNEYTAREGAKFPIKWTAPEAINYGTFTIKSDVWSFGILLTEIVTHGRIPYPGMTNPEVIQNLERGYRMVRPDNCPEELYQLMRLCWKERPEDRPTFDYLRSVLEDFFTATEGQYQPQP
Put plainly: Lck enzyme inhibitory activity (time-resolved fluorometry, biotinylated peptide phosphorylation). As to conditions: read-out: LCK_IC50. The method in brief:
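Readout pairs a europium cryptate-labelled anti-phosphotyrosine antibody with XL665-streptavidin, measured by time-resolved fluorescence. IC50 derived from percent inhibition against untreated controls.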

Setting [1] is: biotinylated peptide phosphorylation.

Read-outs that look alike come from different tables or passages of the source.

T2 sequence (P12931 whole entry): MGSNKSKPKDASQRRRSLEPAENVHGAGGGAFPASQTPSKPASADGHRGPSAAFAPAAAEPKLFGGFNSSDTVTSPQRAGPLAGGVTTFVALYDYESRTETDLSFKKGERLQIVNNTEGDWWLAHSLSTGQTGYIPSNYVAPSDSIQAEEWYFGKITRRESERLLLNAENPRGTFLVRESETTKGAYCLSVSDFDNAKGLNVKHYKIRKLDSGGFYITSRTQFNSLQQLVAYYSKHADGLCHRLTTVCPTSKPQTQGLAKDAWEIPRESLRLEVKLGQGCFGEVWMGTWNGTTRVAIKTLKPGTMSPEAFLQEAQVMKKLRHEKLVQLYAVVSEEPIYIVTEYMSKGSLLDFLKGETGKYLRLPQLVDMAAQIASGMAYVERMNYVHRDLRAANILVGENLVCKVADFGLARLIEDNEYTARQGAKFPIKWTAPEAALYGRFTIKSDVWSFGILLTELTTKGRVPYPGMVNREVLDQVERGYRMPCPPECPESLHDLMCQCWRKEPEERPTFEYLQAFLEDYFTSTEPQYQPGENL
T1 sequence (P07947 whole entry): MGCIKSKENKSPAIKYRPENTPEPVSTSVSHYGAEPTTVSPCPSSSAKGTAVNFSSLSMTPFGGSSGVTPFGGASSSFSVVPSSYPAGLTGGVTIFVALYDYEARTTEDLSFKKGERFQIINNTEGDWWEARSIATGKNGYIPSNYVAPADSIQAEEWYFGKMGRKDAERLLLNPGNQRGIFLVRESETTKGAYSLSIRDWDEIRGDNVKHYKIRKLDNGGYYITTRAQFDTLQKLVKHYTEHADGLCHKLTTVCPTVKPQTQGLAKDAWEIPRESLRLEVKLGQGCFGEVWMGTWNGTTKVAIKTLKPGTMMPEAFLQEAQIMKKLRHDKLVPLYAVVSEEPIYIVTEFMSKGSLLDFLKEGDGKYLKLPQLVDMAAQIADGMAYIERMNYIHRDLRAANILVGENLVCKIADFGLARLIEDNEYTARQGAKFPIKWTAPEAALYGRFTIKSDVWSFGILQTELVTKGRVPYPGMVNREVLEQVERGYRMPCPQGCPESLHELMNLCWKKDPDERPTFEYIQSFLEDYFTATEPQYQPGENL

On to `Cc1cc(Oc2ccccc2F)ncc1-n1ncc(C(=O)c2cc3cc(OC4CCN(C(C)C)CC4)c(Br)cc3[nH]2)c1N` [Example 5-1-153, [5-amino-1-[6-(2-fluorophenoxy)-4-methylpyridin-3-yl]pyrazol-4-yl]-[6-bromo-5-(1-propan-2-ylpiperidin-4-yl)oxy-1H-indol-2-yl] methanone], for which the IC50 at human Yes1 enzyme amounted to 0.53 nM; on human Src enzyme, 7.9 nM; on human Lck enzyme, 3 nM.

`Cc1cc2cc(C(=O)c3cnn(-c4cnc(Oc5ccc(F)cc5)cc4C)c3N)[nH]c2cc1NS(=O)(=O)N1CCOCC1` [Example 5-1-064, N-[2-[5-amino-1-[6-(4-fluorophenoxy)-4-methylpyridin-3-yl]pyrazole-4-carbonyl]-5-methyl-1H-indol-6-yl]morpholine-4-sulfonamide]: the IC50 on human Yes1 enzyme came to 24 nM; at human Src enzyme it was 340 nM; on human Lck enzyme it was 260 nM.

As to `Cc1cc(Oc2c(F)cccc2F)ncc1-n1ncc(C(=O)c2cc3cc(OC4CCN(C5CC5)CC4)c(Br)cc3[nH]2)c1N` [Example 5-1-224, [5-amino-1-[6-(2,6-difluorophenoxy)-4-methylpyridin-3-yl]pyrazol-4-yl]-[6-bromo-5-(1-cyclopropylpiperidin-4-yl)oxy-1H-indol-2-yl] methanone], the IC50 worked out at 0.57 nM at human Yes1 enzyme, 17 nM at human Src enzyme and 6.3 nM at human Lck enzyme.

For `Cc1cccc(S(=O)(=O)Nc2cc3[nH]c(C(=O)c4cnn(-c5cnc(Oc6ccccc6F)cc5C)c4N)cc3cc2F)n1` [Example 5-1-534, N-[2-[5-amino-1-[6-(2-fluorophenoxy)-4-methylpyridin-3-yl]pyrazole-4-carbonyl]-5-fluoro-1H-indol-6-yl]-6-methylpyridine-2-sulfonamide], the results for the IC50 at human Yes1 enzyme (setting [1]), at human Src enzyme (setting [1]) and on human Lck enzyme (setting [1]) were 5.1 nM, 640 nM and 170 nM, respectively.

Consider `Cc1cc(Oc2ccccc2F)ccc1-n1ncc(C(=O)c2cc3cc(OC(F)F)c(-n4c(C)cc(=O)[nH]c4=O)cc3[nH]2)c1N` [Example 4-23-031, 1-[2-[5-amino-1-[4-(2-fluorophenoxy)-2-methylphenyl]pyrazole-4-carbonyl]-5-(difluoromethoxy)-1H-indol-6-yl]-6-methylpyrimidine-2,4-dione], for which the IC50 on human Yes1 enzyme (setting [1]) came out at 1.5 nM; at human Src enzyme (setting [1]), 14 nM; at human Lck enzyme (setting [1]), 5.2 nM.

Regarding `Cc1cc(-n2ncc(C(=O)c3cc4cc(OCC(F)F)c(N)cc4[nH]3)c2N)ccc1Oc1ccccc1F` [Example 5-1-162, [6-amino-5-(2,2-difluoroethoxy)-1H-indol-2-yl]-[5-amino-1-[4-(2-fluorophenoxy)-3-methylphenyl]pyrazol-4-yl]methanone], the IC50 on human Yes1 enzyme is 2.1 nM; at human Src enzyme, 480 nM; at human Lck enzyme it was 120 nM.

With `Cc1cc(Oc2ccccc2F)cc(F)c1-n1ncc(C(=O)c2cc3cc(OCC(F)F)c(C4CCN(S(=O)(=O)C5CC5)CC4)cc3[nH]2)c1N` [Example 4-17-019, [5-amino-1-[2-fluoro-4-(2-fluorophenoxy)-6-methylphenyl]pyrazol-4-yl]-[6-(1-cyclopropylsulfonylpiperidin-4-yl)-5-(2,2-difluoroethoxy)-1H-indol-2-yl]methanone], the IC50 on human Yes1 enzyme (setting [1]) stood at 3.2 nM; on human Src enzyme (setting [1]), 18 nM; at human Lck enzyme (setting [1]), 9.1 nM.

On to `Cc1cc2cc(C(=O)c3cnn(-c4cnc(Oc5ccccc5F)cc4C)c3N)[nH]c2cc1N1CCOCC1` [Example 4-2-123, [5-amino-1-[6-(2-fluorophenoxy)-4-methylpyridin-3-yl]pyrazol-4-yl]-(5-methyl-6-morpholin-4-yl-1H-indol-2-yl)methanone], for which the figures for the IC50 at human Yes1 enzyme (setting [1]), at human Src enzyme (setting [1]) and at human Lck enzyme (setting [1]) were 1.9 nM, 37 nM and 5.8 nM, respectively.

Consider `Cc1cc2cc(C(=O)c3cnn(-c4cnc(Oc5ccccc5F)cc4C)c3N)[nH]c2cc1NS(=O)(=O)c1c(F)cc(F)cc1F` [Example 5-1-501, N-[2-[5-amino-1-[6-(2-fluorophenoxy)-4-methylpyridin-3-yl]pyrazole-4-carbonyl]-5-methyl-1H-indol-6-yl]-2,4,6-trifluorobenzenesulfonamide], for which the figures for the IC50 on human Yes1 enzyme (setting [1]), on human Src enzyme (setting [1]) and at human Lck enzyme (setting [1]) were 4.8 nM, 570 nM and 190 nM, respectively.

Regarding `Cc1cc(Oc2ccccc2F)cc(F)c1-n1ncc(C(=O)c2cc3cc(OC4CCN(C(C)C)CC4)c(Br)cc3[nH]2)c1N` [Example 5-1-154, [5-amino-1-[2-fluoro-4-(2-fluorophenoxy)-6-methylphenyl]pyrazol-4-yl]-[6-bromo-5-(1-propan-2-ylpipendin-4-yl)oxy-1H-indol-2-yl] methanone], the results for the IC50 at human Yes1 enzyme, at human Src enzyme and at human Lck enzyme were 0.67 nM, 11 nM and 4.3 nM, respectively.

In the case of `Cc1cc(Oc2c(F)cccc2F)ncc1-n1ncc(C(=O)c2cc3cc(F)c(N4C(=O)[C@@H]5CCCN5C4=O)cc3[nH]2)c1N` [Example 5-1-432, (7aS)-2-[2-[5-amino-1-[6-(2,6-difluorophenoxy)-4-methylpyridin-3-yl]pyrazole-4-carbonyl]-5-fluoro-1H-indol-6-yl]-5,6,7,7a-tetrahydropyrrolo[1,2-c]imidazole-1,3-dione], the IC50 on human Yes1 enzyme (setting [1]) turned out to be 3.8 nM; on human Src enzyme (setting [1]), 96 nM; at human Lck enzyme (setting [1]), 7.7 nM.

Turning to `Cc1cc(Oc2c(F)cccc2F)ncc1-n1ncc(C(=O)c2cc3cc(C(C)C)c(NS(=O)(=O)N4C5CCC4COC5)cc3[nH]2)c1N` [Example 5-1-303, N-[2-[5-amino-1-[6-(2,6-difluorophenoxy)-4-methylpyridin-3-yl]pyrazole-4-carbonyl]-5-propan-2-yl-1H-indol-6-yl]-3-oxa-8-azabicyclo [3.2.1]octane-8-sulfonamide], the figures for the IC50 at human Yes1 enzyme, at human Src enzyme and at human Lck enzyme were 27 nM, 1500 nM and 320 nM, respectively.

Take `Cc1cc(Oc2ccccc2F)cc(F)c1-n1ncc(C(=O)c2cc3cc(OC(F)F)c(NS(=O)(=O)CCCF)cc3[nH]2)c1N` [Example 4-24-006, N-[2-[5-amino-1-[2-fluoro-4-(2-fluorophenoxy)-6-methylphenyl]pyrazole-4-carbonyl]-5-(difluoromethoxy)-1H-indol-6-yl]-3-fluoropropane-1-sulfonamide]: the IC50 on human Yes1 enzyme (setting [1]) came to 4.5 nM; at human Src enzyme (setting [1]), 200 nM; on human Lck enzyme (setting [1]) it was 51 nM.

`Cc1cc(Oc2c(F)cccc2F)ncc1-n1ncc(C(=O)c2cc3cc(OCC(F)F)c(N4C(=O)NC5(CCNCC5)C4=O)cc3[nH]2)c1N` [Example 5-1-332, 3-[2-[5-amino-1-[6-(2,6-difluorophenoxy)-4-methylpyridin-3-yl]pyrazole-4-carbonyl]-5-(2,2-difluoroethoxy)-1H-indol-6-yl]-1,3,8-triazaspiro[4.5]decane-2,4-dione]: the IC50 on human Yes1 enzyme is 0.79 nM; at human Src enzyme, 12 nM; at human Lck enzyme, 2.5 nM.

For `Cc1cc(Oc2ccccc2F)cc(F)c1-n1ncc(C(=O)c2cc3cc(OCC(F)F)c(C4CCN(S(C)(=O)=O)CC4)cc3[nH]2)c1N` [Example 4-17-018, [5-amino-1-[2-fluoro-4-(2-fluorophenoxy)-6-methylphenyl]pyrazol-4-yl]-[5-(2,2-difluoroethoxy)-6-(1-methylsulfonylpiperidin-4-yl)-1H-indol-2-yl]methanone], the IC50 at human Yes1 enzyme (setting [1]) came out at 2.4 nM; at human Src enzyme (setting [1]), 19 nM; on human Lck enzyme (setting [1]) it was 11 nM.

On to `Cc1cc(Oc2c(F)cccc2F)ncc1-n1ncc(C(=O)c2cc3cc(F)c(NS(=O)(=O)c4cc(F)cc(F)c4)cc3[nH]2)c1N` [Example 5-1-563, N-[2-[5-amino-1-[6-(2,6-difluorophenoxy)-4-methylpyridin-3-yl]pyrazole-4-carbonyl]-5-fluoro-1H-indol-6-yl]-3,5-difluorobenzenesulfonamide], for which the IC50 at human Yes1 enzyme (setting [1]) came out at 17 nM; at human Src enzyme (setting [1]), 1200 nM; on human Lck enzyme (setting [1]), 590 nM.

With `Cc1cc(Oc2ccccc2F)ccc1-n1ncc(C(=O)c2cc3cc(F)c(NS(=O)(=O)CC4COCCO4)cc3[nH]2)c1N` (stereo not drawn) [Example 4-7-002, N-[2-[5-amino-1-[4-(2-fluorophenoxy)-2-methylphenyl]pyrazole-4-carbonyl]-5-fluoro-1H-indol-6-yl]-1-(1,4-dioxan-2-yl)methanesulfonamide], the IC50 was found to be 0.43 nM at human Yes1 enzyme (setting [1]), 9.5 nM at human Src enzyme (setting [1]) and 9.1 nM at human Lck enzyme (setting [1]).

On to `Cc1cc(-n2ncc(C(=O)c3cc4cc(OC5CCN(C6CCC6)CC5)c(N5C(=O)NC(C)(C)C5=O)cc4[nH]3)c2N)ccc1Oc1ccccc1F` [Example 5-1-233, 3-(2-(5-amino-1-(4-(2-fluorophenoxy)-3-methylphenyl)-1H-pyrazole-4-carbonyl)-5-((1-cyclobutylpiperidin-4-yl)oxy)-1H-indol-6-yl)-5,5-dimethylimidazolidine-2,4-dione], for which the IC50 is 0.92 nM on human Yes1 enzyme, 340 nM at human Src enzyme and 21 nM at human Lck enzyme.

As to `Cc1cc(Oc2c(F)cccc2F)ncc1-n1ncc(C(=O)c2cc3cc(OC(F)F)c(C4CCNCC4)cc3[nH]2)c1N` [Example 4-4-001, (5-amino-1-(6-(2,6-difluorophenoxy)-4-methylpyridin-3-yl)-1H-pyrazol-4-yl)(5-(difluoromethoxy)-6-(piperidin-4-yl)-1H-indol-2-yl)methanone], the results for the IC50 at human Yes1 enzyme (setting [1]), on human Src enzyme (setting [1]) and on human Lck enzyme (setting [1]) were 6.3 nM, 21 nM and 8.2 nM, respectively.

In the case of `Cc1cc2cc(C(=O)c3cnn(-c4cnc(Oc5c(F)cccc5F)cc4C)c3N)[nH]c2cc1NS(=O)(=O)c1c(F)cc(F)cc1F` [Example 5-1-565, N-[2-[5-amino-1-[6-(2,6-difluorophenoxy)-4-methylpyridin-3-yl]pyrazole-4-carbonyl]-5-methyl-1H-indol-6-yl]-2,4,6-trifluorobenzenesulfonamide], the IC50 at human Yes1 enzyme (setting [1]) turned out to be 19 nM; on human Src enzyme (setting [1]), 1100 nM; at human Lck enzyme (setting [1]), 720 nM.

Source of the values: US10479780B2, “Aminopyrazole derivatives” (Chugai Seiyaku Kabushiki Kaisha, priority 2015, dated 2019).
